Source: US7725174B2 (priority 2006, dated 2010)

Key:
[1] = system: human volunteer subjects; settings: one subject
Description: As with ApEn, these entropy measures compare changes in the time series of raw EEG data as it is generated. However, they are designed to determine qualities about the system which is generating the data. As such, they have potential to impart information about changes in CNS rather than just changes in the EEG. Information can be related about the CNS from a mesoscopic scale to a microscopic scale. […] Correlation dimension has not been used for real time analyses in the past because the computation usually requires large data sets for precise determination of the actual dimension of the data space. (See, Preissl, H., W. Lutzenberger, F. Pulvermuller, and N. Birbaumer, Fractal dimensions of short EEG time series in humans. Neurosci Lett, 1997. 225: p. 77-80.) To address this problem, we used short segments (e.g., 10 seconds) of data to calculate the correlation dimension and averaged the critical distance parameter ε, with each new estimate. Though this limits the accuracy with which signal dimension can be determined, it provides a reasonable estimate that changes as signal complexity changes.
Using the same raw EEG data, Lyapunov exponents of the EEG were also determined. Lyapunov exponents provide a qualitative indicator of signal stability. Unstable signals are sensitive to initial conditions and thus the predictability of their future trajectory is difficult. […]

[2] = system: human volunteer subjects; settings: in vivo

SMILES: CC(C)c1cccc(C(C)C)c1O [propofol]
- Lyapunov exponent with increasing sedation ([1]; FIG. 9): tends towards a positive value
- changes in correlation dimension by clinical frequency band ([1]; awake to deeper levels of sedation, FIG. 8): appear in the higher frequency ranges first
- change in ApEn with drug concentration [2]: decreased
